The first experiment addresses T1, KRAS G12C 1-169, his-tagged protein, GDP-loaded (Homo sapiens, UniProt P01116, G12C).
T1 construct: KRAS G12C 1-169, his-tagged protein, GDP-loaded
Nature of the experiment: KRAS G12C covalent binding (% modification) by mass spectrometry, ten or three minute incubation. As to conditions: covalent binding to KRAS G12C after a ten minute incubation period. The method in brief: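 GDP-loaded protein in 20 mM Hepes, 150 mM NaCl, 1 mM MgCl2 was incubated with compound (final 100, 30 or 10 μM; 2% DMSO) at room temperature, then quenched with formic acid. Intact-protein LC-MS with charge-envelope deconvolution gave masses and intensities of modified and unmodified species.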
On to `C=CC(=O)N1C[C@H](C)N(c2nc(N3CC(N(C)C)C3)nc3c(F)c(-c4c(C)ccc5cn[nH]c45)c(Cl)cc23)C[C@H]1C` (atropisomer, axis not shown) [Compound 73, 1-((2R,5S)-4-((S)-6-chloro-2-(3-(dimethylamino)azetidin-1-yl)-8-fluoro-7-(6-methyl-1H-indazol-7-yl)quinazolin-4-yl)-2,5-dimethylpiperazin-1-yl)prop-2-en-1-one], for which the Binding % result is listed as “++ (++ indicates binding activity from 50 to 90%)”.

Still in this experiment, the particulars now being: covalent binding to KRAS G12C, % modification after a three minute incubation period.
For the compound `C=CC(=O)N1CCN(c2nc(OCCc3ncccn3)nc3c(F)c(-c4c(O)cccc4F)c(Cl)cc23)C[C@H]1C` (atropisomer, axis not shown) [Compound 267, 1-((R)-4-(6-chloro-8-fluoro-7-((R)-2-fluoro-6-hydroxyphenyl)-2-(2-(pyrimidin-2-yl)ethoxy)quinazolin-4-yl)-2-methylpiperazin-1-yl)prop-2-en-1-one], the Binding % result was “+ (+ indicates binding activity greater than 0% and up to 50%)”. Same read-out and setting: under `C=CC(=O)N1C[C@H](C)N(c2nc(N3CC(N(C)C)C3)nc3c(F)c(-c4cc(O)cc5ccccc45)c(C(F)(F)F)cc23)C[C@H]1C` [Compound 178, 1-((2R,5S)-4-(2-(3-(dimethylamino)azetidin-1-yl)-8-fluoro-7-(3-hydroxynaphthalen-1-yl)-6-(trifluoromethyl)quinazolin-4-yl)-2,5-dimethylpiperazin-1-yl)prop-2-en-1-one] stands “+++ (+++ indicates binding activity greater than 90%)”; under `C=CC(=O)N1C[C@H](C)N(c2nc(OCCn3cnc4ccccc43)nc3c(F)c(-c4c(O)cccc4F)c(Cl)cc23)C[C@H]1C` [Compound 254, 1-((2R,5S)-4-(2-(2-(1H-benzo[d]imidazol-1-yl)ethoxy)-6-chloro-8-fluoro-7-(2-fluoro-6-hydroxyphenyl)quinazolin-4-yl)-2,5-dimethylpiperazin-1-yl)prop-2-en-1-one], “+ (+ indicates binding activity greater than 0% and up to 50%)”. For `C=CC(=O)N1C[C@H](C)N(c2nc(N3CC(N(C)C)C3)nc3c(F)c(-c4c(O)cccc4F)c(C(F)(F)F)cc23)C[C@H]1C` (atropisomer, axis not shown) [Compound 269, 1-((2R,5S)-4-(2-(3-(dimethylamino)azetidin-1-yl)-8-fluoro-7-((S)-2-fluoro-6-hydroxyphenyl)-6-(trifluoromethyl)quinazolin-4-yl)-2,5-dimethylpiperazin-1-yl)prop-2-en-1-one], the Binding % entry is “+ (+ indicates binding activity greater than 0% and up to 50%)”.

On to `C=CC(=O)N1C[C@H](C)N(c2nc(OCCc3nccn3C)nc3c(F)c(-c4c(C)ccc5[nH]ncc45)c(Cl)cc23)C[C@H]1C` [Compound 293, 1-((2R,5S)-4-(6-chloro-8-fluoro-2-(2-(1-methyl-1H-imidazol-2-yl)ethoxy)-7-(5-methyl-1H-indazol-4-yl)quinazolin-4-yl)-2,5-dimethylpiperazin-1-yl)prop-2-en-1-one], for which the Binding % result is “++ (++ indicates binding activity from 50 to 90%)”. The same measure, in the same setting: the same measure for `C=CC(=O)N1C[C@H](C)N(c2nc(OCCc3ncc(C)n3C)nc3c(F)c(-c4c(O)cccc4F)c(Cl)cc23)C[C@H]1C` (atropisomer, axis not shown) [Compound 289, 1-((2R,5S)-4-((S)-6-chloro-2-(2-(1,5-dimethyl-1H-imidazol-2-yl)ethoxy)-8-fluoro-7-(2-fluoro-6-hydroxyphenyl)quinazolin-4-yl)-2,5-dimethylpiperazin-1-yl)prop-2-en-1-one]: “+++ (+++ indicates binding activity greater than 90%)”; for `C=CC(=O)N1C[C@H](C)N(c2nc(N3CC(N(C)C)C3)nc3c(F)c(-c4c[nH]c5cccc(F)c45)c(Cl)cc23)C[C@H]1C` [Compound 290, 1-((2R,5S)-4-(6-chloro-2-(3-(dimethylamino)azetidin-1-yl)-8-fluoro-7-(4-fluoro-1H-indol-3-yl)quinazolin-4-yl)-2,5-dimethylpiperazin-1-yl)prop-2-en-1-one]: “+ (+ indicates binding activity greater than 0% and up to 50%)”; for `C=CC(=O)N1C[C@H](C)N(c2nc(N3CC(N(C)C)C3)nc3c(F)c(-c4c(C)ccc5[nH]nc(I)c45)c(Cl)cc23)C[C@H]1C` [Compound 286, 1-((2R,5S)-4-(6-chloro-2-(3-(dimethylamino)azetidin-1-yl)-8-fluoro-7-(3-iodo-5-methyl-1H-indazol-4-yl)quinazolin-4-yl)-2,5-dimethylpiperazin-1-yl)prop-2-en-1-one]: “+++ (+++ indicates binding activity greater than 90%)”. As to `C=CC(=O)N1C[C@H](C)N(c2nc(OCCCN3CC(F)(F)C3)nc3c(F)c(-c4c(C)ccc5[nH]ncc45)c(Cl)cc23)C[C@H]1C` [Compound 248, 1-((2R,5S)-4-(6-chloro-2-(3-(3,3-difluoroazetidin-1-yl)propoxy)-8-fluoro-7-(5-methyl-1H-indazol-4-yl)quinazolin-4-yl)-2,5-dimethylpiperazin-1-yl)prop-2-en-1-one], the Binding % entry is listed as “++ (++ indicates binding activity from 50 to 90%)”. Same read-out and setting: under `C=CC(=O)N1C[C@H](C)N(c2nc(OCCc3nccn3C)nc3c(F)c(-c4c(O)cccc4F)c(Cl)cc23)C[C@H]1C` (atropisomer, axis not shown) [Compound 288, 1-((2R,5S)-4-((S)-6-chloro-8-fluoro-7-(2-fluoro-6-hydroxyphenyl)-2-(2-(1-methyl-1H-imidazol-2-yl)ethoxy)quinazolin-4-yl)-2,5-dimethylpiperazin-1-yl)prop-2-en-1-one] stands “+++ (+++ indicates binding activity greater than 90%)”. The same measure, in the same setting: under `C=CC(=O)N1C[C@H](C)N(c2nc(OCCn3ccnc3C)nc3c(F)c(-c4c(O)cccc4F)c(Cl)cc23)C[C@H]1C` (atropisomer, axis not shown) [Compound 264, 1-((2R,5S)-4-(6-chloro-8-fluoro-7-((S)-2-fluoro-6-hydroxyphenyl)-2-(2-(2-methyl-1H-imidazol-1-yl)ethoxy)quinazolin-4-yl)-2,5-dimethylpiperazin-1-yl)prop-2-en-1-one] stands “+++ (+++ indicates binding activity greater than 90%)”; under `C=CC(=O)N1C[C@H](C)N(c2nc(N3CC(N(C)C)C3)nc3c(F)c(-c4c(C)ccc5[nH]cnc45)c(Cl)cc23)C[C@H]1C` [Compound 273, 1-((2R,5S)-4-(6-chloro-2-(3-(dimethylamino)azetidin-1-yl)-8-fluoro-7-(5-methyl-1H-benzo[d]imidazol-4-yl)quinazolin-4-yl)-2,5-dimethylpiperazin-1-yl)prop-2-en-1-one], “+++ (+++ indicates binding activity greater than 90%)”; under `C=CC(=O)N1C[C@H](C)N(c2nc(OCCn3cncn3)nc3c(F)c(-c4c(O)cccc4F)c(Cl)cc23)C[C@H]1C` (atropisomer, axis not shown) [Compound 259, 1-((2R,5S)-4-(2-(2-(1H-1,2,4-triazol-1-yl)ethoxy)-6-chloro-8-fluoro-7-((S)-2-fluoro-6-hydroxyphenyl)quinazolin-4-yl)-2,5-dimethylpiperazin-1-yl)prop-2-en-1-one], “+++ (+++ indicates binding activity greater than 90%)”. On the same count and under the same terms, under `C=CC(=O)N1C[C@H](C)N(c2nc(N3CC(N(C)C)C3)nc3c(F)c(-c4n[nH]c5ccccc45)c(Cl)cc23)C[C@H]1C` [Compound 295, 1-((2R,5S)-4-(6-chloro-2-(3-(dimethylamino)azetidin-1-yl)-8-fluoro-7-(1H-indazol-3-yl)quinazolin-4-yl)-2,5-dimethylpiperazin-1-yl)prop-2-en-1-one] stands “+ (+ indicates binding activity greater than 0% and up to 50%)”; under `C=CC(=O)N1C[C@H](C)N(c2nc(N3CC(N(C)C)C3)nc3c(F)c(-c4cc(O)cc5ccccc45)c(C(F)(F)F)cc23)C[C@H]1C` (atropisomer, axis not shown) [Compound 255, 1-((2R,5S)-4-(2-(3-(dimethylamino)azetidin-1-yl)-8-fluoro-7-((R)-3-hydroxynaphthalen-1-yl)-6-(trifluoromethyl)quinazolin-4-yl)-2,5-dimethylpiperazin-1-yl)prop-2-en-1-one], “+++ (+++ indicates binding activity greater than 90%)”; under `C=CC(=O)N1C[C@H](C)N(c2nc(N3CC(N(C)C)C3)nc3c(F)c(-c4c(O)cccc4F)c(C(F)(F)F)cc23)C[C@H]1C` [Compound 206, 1-((2R,5S)-4-(2-(3-(dimethylamino)azetidin-1-yl)-8-fluoro-7-(2-fluoro-6-hydroxyphenyl)-6-(trifluoromethyl)quinazolin-4-yl)-2,5-dimethylpiperazin-1-yl)prop-2-en-1-one], “+++ (+++ indicates binding activity greater than 90%)”. With `C=CC(=O)N1C[C@H](C)N(c2nc(OCCO)nc3c(F)c(-c4c(O)cccc4F)c(Cl)cc23)C[C@H]1C` [Compound 253, 1-((2R,5S)-4-(6-chloro-8-fluoro-7-(2-fluoro-6-hydroxyphenyl)-2-(2-hydroxyethoxy)quinazolin-4-yl)-2,5-dimethylpiperazin-1-yl)prop-2-en-1-one], the Binding % result was “++ (++ indicates binding activity from 50 to 90%)”. As for `C=CC(=O)N1CCN(c2nc(OCCc3ncccn3)nc3c(F)c(-c4c(O)cccc4F)c(Cl)cc23)C[C@H]1C` (atropisomer, axis not shown) [Compound 268, 1-((R)-4-(6-chloro-8-fluoro-7-((S)-2-fluoro-6-hydroxyphenyl)-2-(2-(pyrimidin-2-yl)ethoxy)quinazolin-4-yl)-2-methylpiperazin-1-yl)prop-2-en-1-one], the Binding % entry is listed as “+++ (+++ indicates binding activity greater than 90%)”. The same measure, in the same setting: under `C=CC(=O)N1C[C@H](C)N(c2nc(N3CC(N(C)C)C3)nc3c(F)c(-c4c(C)ccc5[nH]nc(N)c45)c(Cl)cc23)C[C@H]1C` [Compound 298, 1-((2R,5S)-4-(7-(3-amino-5-methyl-1H-indazol-4-yl)-6-chloro-2-(3-(dimethylamino)azetidin-1-yl)-8-fluoroquinazolin-4-yl)-2,5-dimethylpiperazin-1-yl)prop-2-en-1-one] stands “++ (++ indicates binding activity from 50 to 90%)”.
